Source: patent publication US5550249A, “Water soluble derivatives of biotin and related therapeutical compositions” (Lifegroup, S.p.A., priority 1991, dated 1996)
Like-named read-outs stand apart in the source and are kept apart here.

Legend:
[1] = Partition in water/octanol (14C-biotin, scintillation counting); assay type: physicochemical
Protocol: ^14 C-biotin (53000 dpm) was used admixed with cool biotin (0.25 mmol) in 5 ml of twice distilled water, in the presence and in the absence of ethanolamine (3 μl), then adding 5 ml of octanol and stirring (1 minute by means of a stirrer VORTEX). After separation of the phases the radioactivity was measured by scintillation (Beckman counter) in 1 ml of sample. The amount of ^14 C-biotin transferred into the octanolic phase was 14443 dpm in the absence of ethanolamine and 82 dpm in the presence of ethanolamine.
This confirms the increase in solubility in the aqueous phase, which is a consequence of the salification.

Water solubility = assay type: physicochemical; settings: salts of biotin with an aminoalcohol
[2] = Solubility in cold ethanol; assay type: physicochemical
[3] = cited from earlier work
vitamin H deficiency = settings: cited from earlier work
[4] = system: carboxylase enzymes deficiency; settings: cited from earlier work
[5] = system: seborrheal dermatitis of the newborn; settings: cited from earlier work
diabetes = settings: cited from earlier work
[6] = system: peripheral neuropathies having diabetic origin; settings: human beings; cited from earlier work
glucokinase = settings: recent studies; cited from earlier work
insulin = settings: recent studies; cited from earlier work
[7] = water/octanol, average of 3 tests

O=C(O)CCCC[C@@H]1SC[C@@H]2NC(=O)N[C@@H]21 [Ethanolamine biotinate, ethanolamine biotinate]
H2O (dpm) ([1]; pH 4, average of 3 tests): 32148 dpm | H2O/octanol ([1]; pH 4, average of 3 tests): 2.6 | octanol (dpm) ([1]; pH 4, average of 3 tests): 12300 dpm | H2O (dpm) [1, 7]: 36664 dpm | H2O/octanol [1, 7]: 447.1 | octanol (dpm) [1, 7]: 82 dpm | water solubility (in words) (Water solubility): completely water soluble | solubility in cold ethanol (in words) [2]: rather soluble in cold ethanol

O=C(O)CCCC[C@@H]1SC[C@@H]2NC(=O)N[C@@H]21 [Biotin, biotin]
H2O (dpm) ([1]; pH 4, average of 3 tests): 40769 dpm | H2O/octanol ([1]; pH 4, average of 3 tests): 2.9 | octanol (dpm) ([1]; pH 4, average of 3 tests): 13991 dpm | H2O (dpm) [1, 7]: 40940 dpm | H2O/octanol [1, 7]: 2.8 | octanol (dpm) [1, 7]: 14443 dpm | water solubility ([3]; biotin as such): 22 mg/100 ml | water solubility (in words) ([3]; prior art): poor water solubility | egg-white injury (vitamin H deficiency; Sidenstricker and co-workers, 1942): can be defeated | secondary effects of vitamin deficiency (vitamin H deficiency; following administration of biotin for a certain time): disappeared | effect in diseases coming from a deficiency in multiple carboxylase enzymes ([4]; multiple carboxylase enzymes): effective | effect in diseases caused by single carboxylase enzymes insufficiency ([4]; single carboxylase enzymes (propionyl-CoA, pyruvate, β-methyl-crotonyl carboxylase)): uneffective | effect in seborrheal dermatitis in the newborn [5]: particularly effective | blood glucose level (diabetes; insulin-dependent diabetics): lowers the blood glucose level | glucose tolerance (diabetes; insulin-independent diabetes): increase glucose tolerance | post-prandial glucose level (diabetes; insulin-independent diabetes): reduce the post-prandial glucose level | resistance to insulin (diabetes; insulin-independent diabetes): lower resistance to insulin | treatment and prevention of diabetic peripheral neuropathies [6]: advantageously utilized | activation of glucokinase (glucokinase): able to activate | activation of insulin (insulin): able to activate

O=C(O)CCCC[C@@H]1SC[C@@H]2NC(=O)N[C@@H]21 [^14 C-biotin]
change of amount of 14C-biotin transferred into the octanolic phase ([1]; aqueous phase brought to pH 4, in the absence of ethanolamine): always remains the same | increase of amount of 14C-biotin transferred into the octanolic phase ([1]; aqueous phase brought to pH 4, in the presence of ethanolamine): 170 times | amount of 14C-biotin transferred into the octanolic phase ([1]; in the absence of ethanolamine): 14443 dpm | amount of 14C-biotin transferred into the octanolic phase ([1]; in the presence of ethanolamine (3 μl)): 82 dpm
